Data on one molecule can be found in US20250144442A1, “LIGHT-GUIDING ADHESIVE PATCH” (SAMSUNG LIFE PUBLIC WELFARE FOUNDATION, priority 2023, published 2025).

The subject of this series is malignant glioma U87 cell line. The series can be described thus: WST-1 cell viability assay for PDT anti-cancer effectiveness. The following applies: 50 μM Hypericin, 2 hours incubation at 37° C., U87 cells, no simultaneous light; FIG. 11a. Format: cell-based. As to the method:
To maximize light transmission, a 530±15 nm LED was used to verify the improvement in PDT efficiency with a developed light-guiding adhesive patch using the malignant glioma U87 cell line.
Specifically, the anti-cancer effectiveness through PDT was verified using the WST-1 cell viability assay. During the PDT efficiency verification, initial tests were conducted to establish PDT conditions, investigating the toxicity of the photosensitizer and light exposure.

As to `Cc1cc(O)c2c(=O)c3c(O)cc(O)c4c5c(O)cc(O)c6c(=O)c7c(O)cc(C)c8c1c2c(c34)c(c78)c65` [Hypericin], the “inhibition of cell viability (toxicity of the photosensitizer)” value was “No specific inhibition of cell viability”.
